Results reported in ChEMBL document CHEMBL1133187, “Novel antiarthritic agents with 1,2-isothiazolidine-1,1-dioxide (gamma-sultam) skeleton: cytokine suppressive dual inhibitors of cyclooxygenase-2 and 5-lipoxygenase” (J Med Chem, 2000).

What was measured:
THP-1 [1] = experiment: In vitro inhibitory effect on production of, lipopolysaccharide (LPS) -induced IL1-beta in human THP-1 cells; format: functional, cell-based
Rattus norvegicus [2] = species: Rattus norvegicus; experiment: In vitro inhibitory effect on production of, Prostaglandin E2 (PGE2) in rat synovial cells; format: functional
Rattus norvegicus [3] = species: Rattus norvegicus; experiment: In vitro inhibitory effect on production of, calcium ionophore (A23187) -induced Leukotriene B4 (LTB4) in rat peritoneal cells; format: functional, cell-based
Cyclooxygenase = biological target: T1, Cyclooxygenase (Rattus norvegicus, UniProt P35355+Q63921)
T1 sequence (P35355 whole entry): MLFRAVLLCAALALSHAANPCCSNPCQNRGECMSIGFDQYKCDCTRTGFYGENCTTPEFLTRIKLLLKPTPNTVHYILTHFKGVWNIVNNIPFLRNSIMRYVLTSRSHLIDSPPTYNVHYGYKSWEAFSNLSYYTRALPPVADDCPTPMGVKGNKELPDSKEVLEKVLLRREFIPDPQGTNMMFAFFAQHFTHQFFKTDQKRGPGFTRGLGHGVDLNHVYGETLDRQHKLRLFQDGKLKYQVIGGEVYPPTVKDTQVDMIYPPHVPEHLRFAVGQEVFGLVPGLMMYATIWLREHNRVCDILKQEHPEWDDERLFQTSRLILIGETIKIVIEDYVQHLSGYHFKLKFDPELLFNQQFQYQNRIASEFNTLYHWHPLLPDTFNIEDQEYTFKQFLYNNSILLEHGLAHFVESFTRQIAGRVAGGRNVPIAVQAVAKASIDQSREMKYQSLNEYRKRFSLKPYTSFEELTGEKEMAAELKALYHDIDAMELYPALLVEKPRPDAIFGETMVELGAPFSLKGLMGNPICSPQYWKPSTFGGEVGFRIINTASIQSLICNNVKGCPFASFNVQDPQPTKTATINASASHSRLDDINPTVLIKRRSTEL
T1 sequence (Q63921 whole entry): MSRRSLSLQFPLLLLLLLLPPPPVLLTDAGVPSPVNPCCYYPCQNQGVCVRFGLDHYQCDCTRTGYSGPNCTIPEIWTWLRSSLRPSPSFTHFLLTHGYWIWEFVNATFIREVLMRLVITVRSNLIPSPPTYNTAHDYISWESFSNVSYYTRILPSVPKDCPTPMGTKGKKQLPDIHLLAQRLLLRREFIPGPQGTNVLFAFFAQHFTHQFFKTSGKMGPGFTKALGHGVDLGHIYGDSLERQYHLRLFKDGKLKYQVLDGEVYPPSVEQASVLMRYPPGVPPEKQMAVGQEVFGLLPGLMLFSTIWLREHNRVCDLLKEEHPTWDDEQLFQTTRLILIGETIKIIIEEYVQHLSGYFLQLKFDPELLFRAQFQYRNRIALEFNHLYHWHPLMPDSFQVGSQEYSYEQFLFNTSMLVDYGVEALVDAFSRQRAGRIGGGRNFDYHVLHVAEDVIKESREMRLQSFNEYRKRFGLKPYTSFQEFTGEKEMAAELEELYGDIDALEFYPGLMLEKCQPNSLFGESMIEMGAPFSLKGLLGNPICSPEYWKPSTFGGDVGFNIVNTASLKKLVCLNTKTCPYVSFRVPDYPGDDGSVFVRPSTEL
Description: In vitro inhibitory effect on production of prostaglandin E2 (PGE2) in rat synovial cells.

THP-1 [4] = experiment: In vitro effect on production of lipopolysaccharide (LPS) -induced IL1-beta in human THP-1 cells; format: functional, cell-based
Rattus norvegicus [5] = experiment: Percent inhibition of carrageenan-induced foot-pad edema at 30 mg/kg po; format: functional
Rattus norvegicus [6] = species: Rattus norvegicus; experiment: In vitro effect on production of calcium ionophore (A23187) -induced Leukotriene B4 (LTB4) in rat peritoneal cells; format: functional, cell-based
Rattus norvegicus [7] = experiment: Percent inhibition of adjuvant-induced arthritis at 10 mg/kg po; format: functional
[8] = Inhibitory effect on production of cyclooxygenase-2 (COX-2) prostaglandin E2 (PGE2) in human IL1-beta stimulated synovial cells
Homo sapiens [9] = species: Homo sapiens; experiment: Inhibitory effect on production of cyclooxygenase-1 (COX-1) thromboxane B2 (TXB2) in human platelet cells
Rattus norvegicus [10] = experiment: Dose required for 30% inhibition of carrageenan-induced edema; format: functional
Rattus norvegicus [11] = species: Rattus norvegicus; experiment: Inhibitory effect for increase in plasma prostaglandin E2 (PGE2) level after arachidonic acid (AA) injection into COX-1 non-lipopolysaccharide-treated rats; format: functional
Rattus norvegicus [12] = species: Rattus norvegicus; experiment: Dose required for 30% inhibition of adjuvant-induced arthritis; format: functional
Rattus norvegicus [13] = species: Rattus norvegicus; experiment: Inhibitory effect for increase in plasma prostaglandin E2 (PGE2) level after arachidonic acid (AA) injection intoCOX-1 non-lipopolysaccharide-treated rats; format: functional
Rattus norvegicus [14] = species: Rattus norvegicus; experiment: Dose required for Ulcerogenic effect; format: functional
Rattus norvegicus [15] = species: Rattus norvegicus; experiment: Inhibitory effect for increase in plasma prostaglandin E2 (PGE2) level after arachidonic acid (AA) injection into, COX-1 non-lipopolysaccharide-treated rats; format: functional
Homo sapiens [16] = species: Homo sapiens; experiment: Inhibitory effect on production of (COX-1) thromboxane B2 (TXB2) in human platelet cells; format: functional, cell-based
Rattus norvegicus [17] = species: Rattus norvegicus; experiment: Inhibitory effect for increase in plasma prostaglandin E2 (PGE2) level after arachidonic acid (AA) injection into COX-2 lipopolysaccharide-treated rats; format: functional
[18] = Inhibitory effect on production of (COX-2) prostaglandin E2 (PGE2) in human IL1-beta stimulated synovial cells; format: functional
Rattus norvegicus [19] = species: Rattus norvegicus
Description: Lengths of bleeding ulcer of drug-administered group

Row | Structure (SMILES) | IC50 (Cyclooxygenase) [µM] | IC50 (THP-1 [4]) [µM] | IC50 (Rattus norvegicus [6]) [µM] | inhibition in vivo at 30 mg/kg (Rattus norvegicus [5]) [%] | also measured
1 | CCN1CC/C(=C\c2cc(C)c(O)c(C)c2)S1(=O)=O | – | – | – | – | IC50 (THP-1 [1]): > 100 µM; IC50 (Rattus norvegicus [2]): > 1 µM; IC50 (Rattus norvegicus [3]): 21 µM
2 | CC(C)(C)c1cc(/C=C2\CCN(c3ccc(Cl)cc3)S2(=O)=O)cc(C(C)(C)C)c1O | < 0.001 | > 100 | 21 | 6.3 | –
3 | CC(C)(C)c1cc(/C=C2\CCN(c3ccncc3)S2(=O)=O)cc(C(C)(C)C)c1O | 0.41 | – | – | – | –
4 | CC(C)(C)c1cc(/C=C2\CCNS2(=O)=O)cc(C(C)(C)C)c1O | 0.03 | > 100 | > 100 | 17.2 | inhibition in vivo at 10 mg/kg (Rattus norvegicus [7]): 8.8%
5 | CC(C)(C)c1cc(/C=C2\CCN(c3cccnc3)S2(=O)=O)cc(C(C)(C)C)c1O | 0.32 | – | – | – | –
6 | CC(C)(C)c1cc(/C=C2\CCCNS2(=O)=O)cc(C(C)(C)C)c1O | 0.0062 | 56 | 74 | 14.7 | –
7 | CC(=O)N1CC/C(=C\c2cc(C(C)(C)C)c(O)c(C(C)(C)C)c2)S1(=O)=O | < 0.001 | 28 | 4.9 | 21 | –
8 | CC(C)(C)c1cc(/C=C2\CCN(C(=O)NO)S2(=O)=O)cc(C(C)(C)C)c1O | 0.024 | 20 | 6 | 14.9 | –
9 | Cc1ccc(-c2cc(C(F)(F)F)nn2-c2ccc(S(N)(=O)=O)cc2)cc1 [CELECOXIB] | – | – | – | – | IC50 [8]: 0.0079 µM; IC50 (Homo sapiens [9]): 19 µM
10 | COc1ccc2c(c1)c(CC(=O)O)c(C)n2C(=O)c1ccc(Cl)cc1 [INDOMETHACIN] | – | > 100 | > 100 | – | ED30 (Rattus norvegicus [10]): 0.8 mg/kg; ED50 (Rattus norvegicus [11]): 0.37 mg/kg; ED30 (Rattus norvegicus [12]): 0.06 mg/kg; ED50 (Rattus norvegicus [13]): 0.37 mg/kg; Dose (Rattus norvegicus [14]): 30 mg/kg
11 | CS(=O)(=O)Nc1ccc([N+](=O)[O-])cc1OC1CCCCC1 [NS-398] | – | – | – | – | ED50 (Rattus norvegicus [15]): > 30 mg/kg; IC50 (Homo sapiens [16]): 6.8 µM; ED50 (Rattus norvegicus [17]): 1 mg/kg; IC50 [18]: 0.0019 µM
12 | NC(=O)N1C(=O)/C(=C(\O)c2cccs2)c2cc(Cl)ccc21 [TENIDAP] | 0.053 | 16 | 45 | – | ED30 (Rattus norvegicus [10]): 4 mg/kg; Ulcer index (Rattus norvegicus [19]): 12.9 mm; ED50 (Rattus norvegicus [11]): 0.025 mg/kg; ED30 (Rattus norvegicus [12]): 1 mg/kg; Dose (Rattus norvegicus [14]): 30 mg/kg; ED50 (Rattus norvegicus [17]): 0.05 mg/kg

The next lines start with results.

Row | IC50 (Cyclooxygenase) [µM] | IC50 (THP-1 [4]) [µM] | IC50 (Rattus norvegicus [6]) [µM] | Structure (SMILES) | inhibition in vivo at 30 mg/kg (Rattus norvegicus [5]) [%] | also measured
13 | 0.24 | – | – | CC(C)(C)c1cc(/C=C2\CCN(CCO)S2(=O)=O)cc(C(C)(C)C)c1O | – | –
14 | 0.7 | – | – | CC(C)(C)c1cc(/C=C2/CCN(O)S2(=O)=O)cc(C(C)(C)C)c1O | – | –
15 | 0.013 | 19 | 1.9 | CCCN1CC/C(=C\c2cc(C(C)(C)C)c(O)c(C(C)(C)C)c2)S1(=O)=O | 0.3 | inhibition in vivo at 10 mg/kg (Rattus norvegicus [7]): 11.4%
16 | 0.012 | 23 | 0.8 | CCCN1CC/C(=C/c2cc(C(C)(C)C)c(O)c(C(C)(C)C)c2)S1(=O)=O | 11.2 | –
17 | 0.34 | – | – | CN(C)CCN1CC/C(=C\c2cc(C(C)(C)C)c(O)c(C(C)(C)C)c2)S1(=O)=O | – | –
18 | 0.0025 | 20 | 1.5 | CON1CC/C(=C/c2cc(C(C)(C)C)c(O)c(C(C)(C)C)c2)S1(=O)=O | 6 | inhibition in vivo at 10 mg/kg (Rattus norvegicus [7]): 5%
19 | < 0.001 | 29 | 1.8 | CN1CC/C(=C/c2cc(C(C)(C)C)c(O)c(C(C)(C)C)c2)S1(=O)=O | 25.2 | –
